pEC50: −log10 of the molar value.
Molecular target: FXR (Homo sapiens (Human), UniProt Q96RI1)
Experiment: transient human FXR/Gal4-luciferase reporter assay
Type: cell-based
Details: Gal4-hFXR LBD fusion in HEK293 reporter cells; relative to 8 μM GW-4064
Procedure: The exemplified compounds of the present invention were tested in the transient human FXR/Gal4-luciferase reporter assay, and assay results were described in the EXAMPLES section hereinbefore.
A Gal4-hFXR fusion construct reporter system was used as the primary assay to characterize compound activity. A construct including 5 copies of the Gal4 promoter response element upstream of a firefly luciferase reporter cDNA was stably expressed in HEK293 cells. This reporter cell line was maintained in Dulbecco's Modified Eagle's medium (DMEM; Gibco) supplemented with 1% penicillin-streptomycin (P/S) solution, 500 μg/ml Zeocin and 10% charcoal/dextran-treated fetal bovine serum (cs-FBS) at 37° C. in a humidified 5% CO2 atmosphere. Another plasmid was constructed in which the human cytomegalovirus promoter in the pcDNA3.1 vector directs the expression of the cDNA encoding a fusion protein comprised of the DNA binding domain from the Gal4 transcription factor fused to the ligand binding domain from human FXR.
The day prior to transfection, the reporter cells in culture are detached from the plate with trypsin and plated into a T75 flask at a sufficient density to achieve approximately 90% confluence the next morning. The transfection reagents are prepared by separately diluting 25 μg of the pcDNA3.1-Gal4-FXR plasmid into 1.87 mL of Opti-MEM (Thermo-Fisher), and 40 μL of Lipofectamine 2000 (Thermo-Fisher) into 1.87 mL of Opti-MEM, and then adding the diluted DNA solution into the diluted Lipofectamine 2000 solution and incubating at room temperature for 15-20 minutes. The mixture is further diluted with 10 mL of a solution comprised of DMEM, 10% cs-FBS, and 1% P/S immediately prior to transferring to the cells. The maintenance culture media is aspirated from the cells and the final transfection mixture is added before the cells are incubated overnight at 37° C. in a humidified 5% CO2 atmosphere. This protocol can be scaled up, and the transiently transfected cells can be cryopreserved in an assay-ready format.
For compound testing, 100 nL of the compounds (serial dilutions in DMSO) are dispensed with an Echo acoustic dispenser (Labcyte) into the wells of a Corning/Costar clear bottom 384-well white plate. The transfected cells are harvested, counted, and diluted such that 10-25,000 cells in 25 μL are plated into each well of the 384-well compound assay plate. The compound-treated cells are incubated overnight at 37° C. in a humidified 5% CO2 atmosphere. The next morning 25 μL of Steady-Glo (Promega) are added to each well of the plate, the mixture is incubated for 15 min. with shaking, and luminescence is measured on an Envision (Perkin Elmer) plate reader. Background counts from cells treated with DMSO alone are subtracted from all raw counts, and the corrected values are converted to a percentage of the control response attained with 8 μM GW-4064.

Chain of FXR (Q96RI1 262-486): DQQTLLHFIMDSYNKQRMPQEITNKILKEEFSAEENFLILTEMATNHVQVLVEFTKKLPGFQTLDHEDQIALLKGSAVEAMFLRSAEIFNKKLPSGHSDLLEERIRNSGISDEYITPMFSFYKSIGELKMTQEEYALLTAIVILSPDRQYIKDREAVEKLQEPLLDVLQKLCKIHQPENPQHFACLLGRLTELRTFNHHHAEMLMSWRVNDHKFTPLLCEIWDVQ

SMILES | pEC50
O=C(O)c1cc2ccc(/C=C/C34CCC(OCc5c(-c6c(Cl)cncc6Cl)noc5C5CC5)(CC3)CC4)cc2c(OC2CCC2)n1 [Example 613] | 6.53
O=C(O)c1cc2ccc(C#CC34CCC(OCc5c(-c6c(Cl)cncc6Cl)noc5C5CC5)(CC3)CC4)cc2c(NC2CC2)n1 [Example 551] | 6.39
O=C(O)c1cn2c(n1)CN(CC13CCC(OCc4c(-c5c(Cl)cccc5Cl)noc4C4CC4)(CC1)CC3)CC2 [Example 578] | 6.04
CCn1nc(OCC23CCC(OCc4c(-c5c(Cl)cncc5Cl)noc4C4CC4)(CC2)CC3)c(C)c1C(=O)O [Example 530] | 6.66
O=C(O)CCc1ccc(/C=C/C23CCC(OCc4c(-c5c(Cl)cncc5Cl)noc4C4CC4)(CC2)CC3)cc1 [Example 606] | 6.80
O=C(O)COCc1ccc(C#CC23CCC(OCc4c(-c5c(Cl)cncc5Cl)noc4C4CC4)(CC2)CC3)nc1 [Example 569] | 5.86
COCCCOc1cc(C(=O)O)cc2ccc(C34CCC(OCc5c(-c6c(Cl)cncc6Cl)noc5C5CC5)(CC3)CC4)nc12 [Example 556] | 7.52
CN1CCN(c2ncc(C(=O)O)cc2C#CC23CCC(OCc4c(-c5c(Cl)cncc5Cl)noc4C4CC4)(CC2)CC3)CC1 [Example 568] | 6.28
Cn1c(C(=O)O)cc2ccc(/C=C/C34CCC(OCc5c(-c6c(Cl)cncc6Cl)noc5C5CC5)(CC3)CC4)cc21 [Example 595] | 7.31
CC(F)(F)c1cc(OCC23CCC(OCc4c(-c5c(Cl)cncc5Cl)noc4C4CC4)(CC2)CC3)cnc1C(=O)O [Example 536] | 7.26
CNC(=O)Cc1ccc(/C=C/C23CCC(OCc4c(-c5c(Cl)cncc5Cl)noc4C4CC4)(CC2)CC3)cc1 [Example 618] | 6.41
COc1ncc(-c2noc(C34CCC(OCc5c(-c6c(Cl)cncc6Cl)noc5C5CC5)(CC3)CC4)n2)cc1C(=O)O [Example 585] | 6.94
O=C(O)c1ccc(NCC23CCC(OCc4c(-c5c(Cl)cccc5Cl)noc4C4CC4)(CC2)CC3)nc1 [Example 579] | 7.15
O=C(O)c1cc2ccc(C#CC34CCC(OCc5c(-c6c(Cl)cncc6Cl)noc5C5CC5)(CC3)CC4)cc2c(N2CCC2)n1 [Example 559] | 7.70
O=C(O)c1cccc(COCC23CCC(OCc4c(-c5c(Cl)cncc5Cl)noc4C4CC4)(CC2)CC3)c1 [Example 525] | 6.78
O=C(O)Cc1ccc(/C=C/C23CCC(OCc4c(-c5c(Cl)cncc5Cl)noc4C4CC4)(CC2)CC3)cc1F [Example 594] | 6.82
CC(C)Oc1cc(C(=O)O)nc2ccc(CCC34CCC(OCc5c(-c6c(Cl)cncc6Cl)noc5C5CC5)(CC3)CC4)cc12 [Example 586] | 7.52
O=C(O)c1cc2ccc(/C=C/C34CCC(OCc5c(-c6c(Cl)cncc6Cl)noc5C5CC5)(CC3)CC4)cc2c(N2CC(F)C2)n1 [Example 611] | 7.66
O=C(O)c1cc2ccc(Cl)cc2c(C#CC23CCC(OCc4c(-c5c(Cl)cncc5Cl)noc4C4CC4)(CC2)CC3)n1 [Example 547] | 6.60
O=C(O)Cc1ccc(C#CC23CCC(OCc4c(-c5c(Cl)cncc5Cl)noc4C4CC4)(CC2)CC3)cc1F [Example 567] | 6.92
O=C(O)c1cc(OC2CCOC2)c2nc(C34CCC(OCc5c(-c6c(Cl)cncc6Cl)noc5C5CC5)(CC3)CC4)ccc2c1 (stereo not drawn) [Example 560] | 6.54
O=C(O)c1cc2cc(C#CC34CCC(OCc5c(-c6c(Cl)cncc6Cl)noc5C5CC5)(CC3)CC4)ccc2c(N2CCOCC2)n1 [Example 555] | 7.06
COc1ncc(C(=O)O)cc1C#CC12CCC(OCc3c(-c4c(Cl)cncc4Cl)noc3C3CC3)(CC1)CC2 [Example 563] | 7.80
O=C(O)c1c(F)c(OCC23CCC(OCc4c(-c5c(Cl)cncc5Cl)noc4C4CC4)(CC2)CC3)nn1CC1CC1 [Example 535] | 7.30

SMILES | pEC50
COc1ccc(/C=C/C23CCC(OCc4c(-c5c(Cl)cncc5Cl)noc4C4CC4)(CC2)CC3)cc1CCC(=O)O [Example 605] | 6.36
O=C(O)c1cc2ccc(/C=C/C34CCC(OCc5c(-c6c(Cl)cncc6Cl)noc5C5CC5)(CC3)CC4)cc2c(OC2CCCC2)n1 [Example 615] | 7.28
CC(C)Oc1cc(C(=O)O)nc2ccc(/C=C/C34CCC(OCc5c(-c6c(Cl)cncc6Cl)noc5C5CC5)(CC3)CC4)cc12 [Example 591] | 7.80
COCCCOc1nc(C(=O)O)cc2ccc(/C=C/C34CCC(OCc5c(-c6c(Cl)cncc6Cl)noc5C5CC5)(CC3)CC4)cc12 [Example 601] | 7.74
CCn1nc(C(=O)O)c(F)c1OCC12CCC(OCc3c(-c4c(Cl)cncc4Cl)noc3C3CC3)(CC1)CC2 [Example 540] | 6.46
O=C(O)c1cc(N2CCOCC2)c2nc(C34CCC(OCc5c(-c6c(Cl)cncc6Cl)noc5C5CC5)(CC3)CC4)ccc2c1 [Example 543] | 6.33
O=C(O)c1cc(C(F)(F)F)cn2c(C#CC34CCC(OCc5c(-c6c(Cl)cncc6Cl)noc5C5CC5)(CC3)CC4)cnc12 [Example 545] | 8.30
CN(C)C1CN(c2nc(C(=O)O)cc3ccc(C#CC45CCC(OCc6c(-c7c(Cl)cncc7Cl)noc6C6CC6)(CC4)CC5)cc23)C1 [Example 572] | 7.21
O=C(O)c1cnc2cc(/C=C/C34CCC(OCc5c(-c6c(Cl)cncc6Cl)noc5C5CC5)(CC3)CC4)ccn12 [Example 592] | 6.71
O=C(O)c1cc2ccc(C#CC34CCC(OCc5c(-c6c(Cl)cncc6Cl)noc5C5CC5)(CC3)CC4)cc2c(N2CCC(O)C2)n1 (stereo not drawn) [Example 557] | 6.73
Cn1nc(C(=O)O)cc1OCC12CCC(OCc3c(-c4c(Cl)cncc4Cl)noc3C3CC3)(CC1)CC2 [Example 526] | 6.53
Cc1c(OCC23CCC(OCc4c(-c5c(Cl)cncc5Cl)noc4C4CC4)(CC2)CC3)nn(C(C)C)c1C(=O)O [Example 531] | 6.86
O=C(O)COc1ccc(/C=C/C23CCC(OCc4c(-c5c(Cl)cncc5Cl)noc4C4CC4)(CC2)CC3)cn1 [Example 616] | 5.52
O=C(O)c1cc2ccc(/C=C/C34CCC(OCc5c(-c6c(Cl)cncc6Cl)noc5C5CC5)(CC3)CC4)cc2c(N2CCOCC2)n1 [Example 603] | 7.74
O=C(O)COc1cc(C#CC23CCC(OCc4c(-c5c(Cl)cncc5Cl)noc4C4CC4)(CC2)CC3)ccn1 [Example 561] | 6.11
O=C(O)Cc1ccc(/C=C/C23CCC(OCc4c(-c5c(Cl)cncc5Cl)noc4C4CC4)(CC2)CC3)cn1 [Example 596] | 5.87
O=C(O)CCc1cc(/C=C/C23CCC(OCc4c(-c5c(Cl)cncc5Cl)noc4C4CC4)(CC2)CC3)ccc1OCC(F)F [Example 624] | 6.36
O=C(O)Cc1ccc(/C=C/C23CCC(OCc4c(-c5c(Cl)cncc5Cl)noc4C4CC4)(CC2)CC3)c(C(F)(F)F)c1 [Example 621] | 7.37
O=C(O)COCc1ccc(C#CC23CCC(OCc4c(-c5c(Cl)cncc5Cl)noc4C4CC4)(CC2)CC3)cn1 [Example 571] | 6.57
CCc1nc(C(=O)O)cc2ccc(OCC34CCC(OCc5c(-c6c(Cl)cncc6Cl)noc5C5CC5)(CC3)CC4)cc12 [Example 529] | 8.05
CN(C)C(=O)Cc1ccc(/C=C/C23CCC(OCc4c(-c5c(Cl)cncc5Cl)noc4C4CC4)(CC2)CC3)cc1 [Example 620] | 6.42
O=C(O)COCc1ccc(/C=C/C23CCC(OCc4c(-c5c(Cl)cncc5Cl)noc4C4CC4)(CC2)CC3)cc1 [Example 622] | 6.75
O=C(O)c1cncc(NCC23CCC(OCc4c(-c5c(Cl)cccc5Cl)noc4C4CC4)(CC2)CC3)c1 [Example 580] | 6.27
CCn1nc(C(=O)O)cc1OCC12CCC(OCc3c(-c4c(Cl)cncc4Cl)noc3C3CC3)(CC1)CC2 [Example 537] | 7.10

Source: US10730863B2, “Bridged bicyclic compounds as farnesoid X receptor modulators” (BRISTOL-MYERS SQUIBB COMPANY, priority 2017, dated 2020)
